# From US11130761B2, “Substituted pyrrolo[2,1-f][1,2,4]triazines as FGFR inhibitors” (CSPC ZHONGQI PHARMACEUTICAL TECHNOLOGY (SHIJIAZHUANG) CO., …, priority 2016, dated 2021)
# Columns and labels:
# human FGFR1 = biological target: T1, human FGFR1 (Homo sapiens, UniProt P11362); experiment: 33P isotope-labeled kinase activity assay (Reaction Biology Corp), FGFR1; assay type: biochemical; details: 33P-ATP kinase assay, ATP 5 μM, kinase 1.75 nM, substrate pEY + Mn, 120 minutes at room temperature
# T1 construct: purchased Invitrogen PV3146
# T1 sequence (P11362 22-822): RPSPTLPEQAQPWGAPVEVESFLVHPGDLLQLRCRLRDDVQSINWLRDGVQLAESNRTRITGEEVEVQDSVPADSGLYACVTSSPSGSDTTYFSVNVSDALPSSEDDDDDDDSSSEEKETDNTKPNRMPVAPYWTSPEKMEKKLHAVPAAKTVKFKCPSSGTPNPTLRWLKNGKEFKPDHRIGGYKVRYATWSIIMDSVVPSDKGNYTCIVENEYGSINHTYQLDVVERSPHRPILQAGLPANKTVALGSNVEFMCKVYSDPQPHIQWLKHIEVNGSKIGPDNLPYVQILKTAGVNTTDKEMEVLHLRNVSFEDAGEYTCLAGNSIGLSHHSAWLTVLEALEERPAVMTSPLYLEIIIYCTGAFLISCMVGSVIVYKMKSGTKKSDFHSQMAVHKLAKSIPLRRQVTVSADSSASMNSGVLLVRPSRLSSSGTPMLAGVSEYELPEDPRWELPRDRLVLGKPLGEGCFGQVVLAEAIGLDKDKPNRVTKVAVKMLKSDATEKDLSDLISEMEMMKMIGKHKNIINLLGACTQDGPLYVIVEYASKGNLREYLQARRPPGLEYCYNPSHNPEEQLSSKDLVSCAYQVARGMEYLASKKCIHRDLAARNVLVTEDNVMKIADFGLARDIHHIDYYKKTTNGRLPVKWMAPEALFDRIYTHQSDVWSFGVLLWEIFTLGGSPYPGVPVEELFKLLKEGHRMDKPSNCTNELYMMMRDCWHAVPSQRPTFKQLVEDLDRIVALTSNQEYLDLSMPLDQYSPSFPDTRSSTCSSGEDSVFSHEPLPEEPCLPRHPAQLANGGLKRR
# Procedure: (§1) The IC50 value was determined by ^33P isotope-labeled kinase activity assay (Reaction Biology Corp) to evaluate the inhibitory activity of the test compounds on human FGFR1 and FGFR4.
# (§2) Buffer: 20 mM Hepes (pH 7.5), 10 mM MgCl2, 1 mM EGTA, 0.02% Brij35, 0.02 mg/mL BSA, 0.1 mM Na3VO4, 2 mM DTT, 1% DMSO.
# (§3) Test procedure: the test compound was dissolved in DMSO at room temperature to prepare a 10 mM solution for use. The substrate was dissolved in a freshly prepared buffer, followed by addition of the kinase to be tested and the resulting mixture was thoroughly mixed. The solution of the test compound in DMSO was added to the above reaction solution by acoustic technique (Echo 550). The concentration of the compound in the reaction solution was 10 μM, 3.33 μM, 1.11 μM, 0.370 μM, 0.123 μM, 41.2 nM, 13.7 nM, 4.57 nM, 1.52 nM, 0.508 nM, or […], 39.1 nM, 9.8 nM, 2.4 nM, 0.61 nM, 0.15 nM, 0.038 nM. After incubation for 15 minutes, ^33P-ATP (activity 0.01 μCi/μL, corresponding concentration was listed in table 1) was added to initiate the reaction. The reaction was allowed to proceed at room temperature for 120 minutes, then the reaction solution was spotted on P81 ion exchange filter paper (Whatman #3698-915). After the filter paper was washed with 0.75% phosphoric acid solution, the radioactivity of the remained phosphorylated substrate on the filter paper was determined. The kinase activity data was expressed as a ratio of the kinase activity of the test compound to the kinase activity of the control group (DMSO), and the IC50 value was obtained by curve fitting using Prism4 software (GraphPad).
# human FGFR4 = biological target: T2, human FGFR4 (Homo sapiens, UniProt P22455); experiment: 33P isotope-labeled kinase activity assay (Reaction Biology Corp), FGFR4; assay type: biochemical; details: for IC50: 33P-ATP kinase assay, ATP 100 μM, kinase 2.5 nM, substrate pEY + Mn, 120 minutes at room temperature; for Inhibition activity difference (IC50 ratio) FGFR4/FGFR1: ratio of FGFR4 IC50 to FGFR1 IC50
# T2 construct: purchased Invitrogen P3054
# T2 sequence (P22455 22-802): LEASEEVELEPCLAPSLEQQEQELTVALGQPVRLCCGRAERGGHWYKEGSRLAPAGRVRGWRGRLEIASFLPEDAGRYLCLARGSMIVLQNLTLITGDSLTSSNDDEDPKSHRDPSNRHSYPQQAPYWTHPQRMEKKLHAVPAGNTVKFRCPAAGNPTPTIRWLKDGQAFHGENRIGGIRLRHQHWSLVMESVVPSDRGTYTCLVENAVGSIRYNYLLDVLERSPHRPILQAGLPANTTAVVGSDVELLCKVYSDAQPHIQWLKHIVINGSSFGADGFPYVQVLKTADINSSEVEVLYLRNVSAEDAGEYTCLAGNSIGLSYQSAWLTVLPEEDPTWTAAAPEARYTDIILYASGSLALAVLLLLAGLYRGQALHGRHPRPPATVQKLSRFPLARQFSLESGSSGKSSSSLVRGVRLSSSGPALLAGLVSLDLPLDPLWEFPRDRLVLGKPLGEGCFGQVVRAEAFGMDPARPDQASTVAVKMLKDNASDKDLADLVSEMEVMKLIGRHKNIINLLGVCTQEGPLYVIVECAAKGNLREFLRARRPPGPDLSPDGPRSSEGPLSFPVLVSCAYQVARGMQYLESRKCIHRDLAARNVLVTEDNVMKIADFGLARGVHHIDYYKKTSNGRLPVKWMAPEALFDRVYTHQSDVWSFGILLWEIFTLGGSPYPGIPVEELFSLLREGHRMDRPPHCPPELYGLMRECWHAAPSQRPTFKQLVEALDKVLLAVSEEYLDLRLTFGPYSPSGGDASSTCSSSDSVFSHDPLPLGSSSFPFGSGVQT
# Procedure: as §1, §2, §3
Structure (SMILES),IC50 (human FGFR1) [nM],IC50 (human FGFR4) [nM],Inhibition activity difference (IC50 ratio) FGFR4/FGFR1 (human FGFR4)
"C=CC(=O)N1CCC(c2cc(C#Cc3cc(OC)cc(OC)c3)c3c(N)ncnn23)C1 (single isomer, unassigned) [Embodiment 1]",18.3,125,7
"C=CC(=O)N1CCC(c2cc(C#Cc3c(F)c(OC)cc(OC)c3F)c3c(N)ncnn23)C1 (single isomer, unassigned) [Embodiment 3]",0.7,6.6,9
"C=CC(=O)N1CCC(c2cc(C#Cc3c(F)c(OC)cc(OC)c3F)c3c(N)ncnn23)C1 (single isomer, unassigned) [Embodiment 4]",0.07,0.08,1
"C=CC(=O)N1CCC(c2cc(C#Cc3c(Cl)c(OC)cc(OC)c3Cl)c3c(N)ncnn23)C1 (single isomer, unassigned) [Embodiment 5]",21.8,450,21
"C=CC(=O)N1CCC(c2cc(C#Cc3c(Cl)c(OC)cc(OC)c3Cl)c3c(N)ncnn23)C1 (single isomer, unassigned) [Embodiment 6]",0.3,4.6,15
